Our source for the IC50 values is patent publication US7868005B2, “Pyrazinyl substituted piperazine-piperidines with CXCR3 antagonist activity” (Schering Corporation, priority 2005, dated 2011).

The test concerns the target T1, human CXCR3 (N-delta 4) (Homo sapiens, UniProt P49682).
T1 construct: CD8 leader (N); Flag; expressed in transfected cells; membranes prepared
T1 sequence (P49682 5-368 limits assumed): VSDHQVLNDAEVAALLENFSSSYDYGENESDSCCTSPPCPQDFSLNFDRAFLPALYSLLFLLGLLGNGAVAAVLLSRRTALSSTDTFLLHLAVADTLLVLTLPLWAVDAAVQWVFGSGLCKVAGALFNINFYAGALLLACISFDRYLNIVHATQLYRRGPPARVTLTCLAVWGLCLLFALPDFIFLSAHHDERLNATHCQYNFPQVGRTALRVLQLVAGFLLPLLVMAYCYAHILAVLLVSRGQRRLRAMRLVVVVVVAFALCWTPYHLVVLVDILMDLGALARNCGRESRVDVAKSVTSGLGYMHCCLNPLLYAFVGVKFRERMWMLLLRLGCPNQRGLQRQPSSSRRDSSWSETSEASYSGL
As to the kind of experiment: Human CXCR3 (N-delta 4) Scintillation Proximity Assay (SPA), [125I] IP-10 binding to Ba/F3-hCXCR3 membranes. The note with it: IC50 rating, Table 1; read-out: IC50.
In the case of `CC[C@H]1CN(c2nc(NC(=O)C(F)(F)F)c(C(N)=O)nc2Cl)CCN1C1CCN(Cc2ccc(Cl)cc2F)CC1` [compound 292], the IC50 (commonly the concentration at which inhibition is half-maximal) was under 0.025 µM.
For `CC[C@H]1CN(c2nc(N)c(C(=O)O)nc2Cl)CCN1C1CCN(Cc2ccc(Cl)cc2)CC1` [compound 293], the IC50 was over 0.1 µM.
To `CC[C@H]1CN(c2nc(N)c(C(=O)OC)nc2Cl)CCN1C1CCN(Cc2ccc(Cl)cc2CCN)CC1` [compound 294] belongs under 0.025 µM; to `CC[C@H]1CN(c2nc(N)c(C(=O)OC)nc2Cl)CCN1C1CCN(Cc2ccc(Cl)cc2F)CC1` [compound 295], under 0.025 µM; to `CC[C@H]1CN(c2nc(N)c(C(=O)OC)nc2Cl)CCN1C1CCN(Cc2ccc(Cl)cc2CCNC(=O)OC(C)(C)C)CC1` [compound 296], under 0.025 µM.
As for `CC[C@H]1CN(c2nc(N)c(C(=O)OC)nc2Cl)CCN1C1CCN(Cc2ccc(Cl)cc2OCCNC(=O)NC(C)(C)C)CC1` [compound 297], the figure is 0.025 to 0.1 µM.
For `CCNC(=O)NCCc1cc(Cl)ccc1CN1CCC(N2CCN(c3nc(N)c(C(=O)OC)nc3Cl)C[C@@H]2CC)CC1` [compound 298], the IC50 is 0.025 to 0.1 µM.
Take `CC[C@H]1CN(c2nc(N)c(C(=O)OC)nc2Cl)CCN1C1CCN(Cc2ccc(Cl)cc2CC#N)CC1` [compound 299]: the IC50 fell in the range of 0.025 to 0.1 µM.
In the case of `CC[C@H]1CN(c2nc(N)c(C(=O)OC)nc2Cl)CCN1C1CCN(Cc2ccc(Cl)cc2C#N)CC1` [compound 300], the IC50 is over 0.1 µM.
Regarding `COC(=O)c1nc(Cl)c(N2C[C@H](C)N(C3CCN(Cc4ccc(Cl)cc4F)CC3)C[C@H]2C)nc1N` [compound 301], the IC50 is over 0.1 µM.
In the case of `COC(=O)c1nc(Cl)c(N2CCN(C3CCN(Cc4ccc(Cl)cc4)CC3)[C@@H](C)C2)nc1N` [compound 302], the IC50 was over 0.1 µM.
As for `CC[C@H]1CN(c2nc(N)c(C(=O)OC)nc2Cl)CCN1C1CCN(Cc2ccc(Cl)cc2CCNS(C)(=O)=O)CC1` [compound 303], the figure is over 0.1 µM; as for `CC[C@H]1CN(c2nc(N)c(C(=O)NCCO)nc2Cl)CCN1C1CCN(C2c3ccc(C#N)cc3CCC2O)CC1` (stereo partly shown) [compound 304], under 0.025 µM; as for `CC[C@H]1CN(c2nc(N)c(C(=O)OC)nc2Cl)CCN1C1CCN(C2c3ccc(C#N)cc3CCC2O)CC1` (stereo partly shown) [compound 305], over 0.1 µM.
On to `CC[C@H]1CN(c2nc(N)c(C(=O)OC)nc2Cl)CCN1C1CCN(Cc2ccc(C#N)cc2O)CC1` [compound 306], for which the IC50 is over 0.1 µM.
To `CC[C@H]1CN(c2nc(N)c(C(=O)OC)nc2Cl)CCN1C1CCN(Cc2ccc(C#N)cc2OCCO)CC1` [compound 307] belongs over 0.1 µM; to `CC[C@H]1CN(c2nc(N)c(C(=O)OC)nc2Cl)CCN1C1CCN(Cc2ccc(C#N)cc2OCCOC)CC1` [compound 308], over 0.1 µM.
As for `CC[C@H]1CN(c2nc(N)c(C(=O)OC)nc2Cl)CCN1C1CCN(Cc2ccc(Cl)cc2CCNC(C)=O)CC1` [compound 309], the IC50 was over 0.1 µM.
`CC[C@H]1CN(c2nc(N)c(C(=O)OC)nc2Cl)CCN1C1(C)CCN(Cc2ccc(Cl)cc2)CC1` [compound 310]: the IC50 is over 0.1 µM.
In the case of `CC[C@H]1CN(c2cnc(C(=O)OC(C)C)c(N)n2)CCN1C1CCN(Cc2ccc(Cl)cc2)CC1` [compound 311], the IC50 was over 0.1 µM.
`CC[C@H]1CN(c2nc(N)c(C(=O)N3CCN(C(=O)OC(C)(C)C)CC3)nc2Cl)CCN1C1CCN(Cc2ccc(Cl)cc2)CC1` [compound 312]: the IC50 is over 0.1 µM.
Consider `CC[C@H]1CN(c2nc(N)c(C(=O)N3CCN(S(C)(=O)=O)CC3)nc2Cl)CCN1C1CCN(Cc2ccc(Cl)cc2)CC1` [compound 313], for which the IC50 is over 0.1 µM.
Turning to `CC[C@H]1CN(c2nc(N)c(C(=O)NC3CC3)nc2Cl)CCN1C1CCN(C(=O)c2ccc(Cl)cc2O)CC1` [compound 314], the IC50 is under 0.025 µM.
Consider `CC[C@H]1CN(c2nc(N)c(C(=O)NCCO)nc2Cl)CCN1C1CCN(C(=O)c2ccc(Cl)cc2OCCNC(=O)OC(C)(C)C)CC1` [compound 315], for which the IC50 is under 0.025 µM.
Turning to `CC[C@H]1CN(c2nc(N)c(C(=O)NCCO)nc2Cl)CCN1C1CCN(C(=O)c2ccc(Cl)cc2OCCNS(=O)(=O)C(F)(F)F)CC1` [compound 316], the IC50 was under 0.025 µM.
To `CC[C@H]1CN(c2nc(N)c(C(=O)NCCO)nc2Cl)CCN1C1CCN(C(=O)c2ccc(Cl)cc2CC#N)CC1` [compound 317] belongs under 0.025 µM; to `CC[C@H]1CN(c2nc(N)c(C(=O)NCCO)nc2Cl)CCN1C1CCN(C(=O)c2ccc(F)c(F)c2)CC1` [compound 318], 0.025 to 0.1 µM; to `CC[C@H]1CN(c2nc(N)c(C(=O)NC[C@H](C)O)nc2Cl)CCN1C1CCN(C(=O)c2ccc(Cl)cc2)CC1` [compound 319], 0.025 to 0.1 µM.
Consider `CC[C@H]1CN(c2nc(N)c(C(=O)NC(CO)CO)nc2Cl)CCN1C1CCN(C(=O)c2ccc(Cl)cc2)CC1` [compound 320], for which the IC50 is 0.025 to 0.1 µM.
For the molecule `CC[C@H]1CN(c2nc(N)c(C(=O)NCCO)nc2Cl)CCN1C1CCN(C(=O)c2ccc(C)cc2O)CC1` [compound 321], the IC50 was 0.025 to 0.1 µM.
On to `CC[C@H]1CN(c2nc(N)c(C(=O)NCCO)nc2Cl)CCN1C1CCN(C(=O)c2ccc(Cl)cc2O)CC1` [compound 322], for which the IC50 was 0.025 to 0.1 µM.
On to `CC[C@H]1CN(c2nc(N)c(C(=O)N[C@@H](C)CO)nc2Cl)CCN1C1CCN(C(=O)c2ccc(Cl)cc2)CC1` [compound 323], for which the IC50 is 0.025 to 0.1 µM.
`CCOC(=O)COc1cc(Cl)ccc1C(=O)N1CCC(N2CCN(c3nc(N)c(C(=O)NCCO)nc3Cl)C[C@@H]2CC)CC1` [compound 324]: the IC50 is over 0.1 µM.
As for `CC[C@H]1CN(c2nc(N)c(C(N)=O)nc2Cl)CCN1C1CCN(C(=O)c2ccc(Cl)cc2CN2Cc3ccccc3C2)CC1` [compound 325], the IC50 was over 0.1 µM.
Take `CC[C@H]1CN(c2nc(N)c(C(=O)NCCO)nc2Cl)CCN1C1CCN(C(=O)c2ccc(Cl)cc2OCCN)CC1` [compound 326]: the IC50 was over 0.1 µM.
As for `CC[C@H]1CN(c2nc(N)c(C(=O)NCCOCCO)nc2Cl)CCN1C1CCN(C(=O)c2ccc(Cl)cc2)CC1` [compound 327], the IC50 was over 0.1 µM.
As to `CC[C@H]1CN(c2nc(N)c(C(=O)N[C@@H](CO)C(C)O)nc2Cl)CCN1C1CCN(C(=O)c2ccc(Cl)cc2)CC1` (stereo partly shown) [compound 328], the IC50 was over 0.1 µM.
With `CC[C@H]1CN(c2nc(N)c(C(=O)N[C@H](CO)C(C)C)nc2Cl)CCN1C1CCN(C(=O)c2ccc(Cl)cc2)CC1` [compound 329], the IC50 was over 0.1 µM.
As for `CC[C@H]1CN(c2nc(N)c(C(=O)NC)nc2Cl)CCN1C1CCN(C(=O)c2ccc(Cl)cc2N)CC1` [compound 330], the figure is under 0.025 µM; as for `CC[C@H]1CN(c2nc(N)c(C(=O)NC)nc2Cl)CCN1C1CCN(C(=O)c2ccc(Br)cc2)CC1` [compound 331], under 0.025 µM.
Take `CCNC(=O)c1nc(Cl)c(N2CCN(C3CCN(C(=O)c4ccc(Cl)cc4)CC3)[C@@H](CC)C2)nc1N` [compound 332]: the IC50 is under 0.025 µM.
For `CC[C@H]1CN(c2nc(N)c(C(=O)NC)nc2Cl)CCN1C1CCN(C(=O)c2ccc(Br)c(F)c2)CC1` [compound 333], the concentration for half-maximal inhibition (IC50) is under 0.025 µM.
As for `CC[C@H]1CN(c2nc(N)c(C(=O)NCCO)nc2Cl)CCN1C1CCN(C(=O)c2ccc(Cl)cc2)CC1` [compound 334], the figure is under 0.025 µM; as for `CC[C@H]1CN(c2nc(N)c(C(=O)N[C@H](C)CO)nc2Cl)CCN1C1CCN(C(=O)c2ccc(Cl)cc2)CC1` [compound 335], under 0.025 µM; as for `CC[C@H]1CN(c2nc(N)c(C(=O)NC)nc2Cl)CCN1C1CCN(C(=O)c2ccc(Cl)c(F)c2)CC1` [compound 336], under 0.025 µM.
As for `CCC(O)CNC(=O)c1nc(Cl)c(N2CCN(C3CCN(C(=O)c4ccc(Cl)cc4)CC3)[C@@H](CC)C2)nc1N` (stereo partly shown) [compound 337], the figure is under 0.025 µM; as for `CC[C@H]1CN(c2nc(N)c(C(=O)NC[C@@H](C)O)nc2Cl)CCN1C1CCN(C(=O)c2ccc(Cl)cc2)CC1` [compound 338], under 0.025 µM; as for `CC[C@H]1CN(c2nc(N)c(C(=O)NCCO)nc2Cl)CCN1C1CCN(C(=O)c2ccc(Cl)cc2N)CC1` [compound 339], under 0.025 µM.
As for `CC[C@H]1CN(c2nc(N)c(C(=O)NC)nc2Cl)CCN1C1CCN(C(=O)c2ccc(C#N)cc2)CC1` [compound 340], the figure is under 0.025 µM; as for `CC[C@H]1CN(c2nc(N)c(C(=O)NC)nc2Cl)CCN1C1CCN(C(=O)c2ccc(Cl)cc2C)CC1` [compound 341], 0.025 to 0.1 µM.
Take `CC[C@H]1CN(c2nc(N)c(C(=O)NC)nc2Cl)CCN1C1CCN(C(=O)c2ccc(Br)cc2F)CC1` [compound 342]: the IC50 was 0.025 to 0.1 µM.
`CC[C@H]1CN(c2nc(N)c(C(=O)NC)nc2Cl)CCN1C1CCN(C(=O)c2ccc(Cl)cc2O)CC1` [compound 343]: the IC50 fell in the range of 0.025 to 0.1 µM.
On to `CC[C@H]1CN(c2nc(N)c(C(=O)NCCO)nc2Cl)CCN1C1CCN(C(=O)c2ccc(Cl)cc2C(C)C#N)CC1` (stereo partly shown) [compound 344], for which the IC50 lay in the range of 0.025 to 0.1 µM.
As for `CC[C@H]1CN(c2nc(N)c(C(=O)NCCO)nc2Cl)CCN1C1CCN(C(=O)c2cc(F)c(F)cc2N)CC1` [compound 345], the IC50 lay in the range of 0.025 to 0.1 µM.
Consider `CC[C@H]1CN(c2nc(N)c(C(=O)NCCO)nc2Cl)CCN1C1CCN(C(=O)c2ccc(C#CC(C)(C)O)cc2)CC1` [compound 346], for which the IC50 is 0.025 to 0.1 µM.
In the case of `CC[C@H]1CN(c2nc(N)c(C(=O)NCCO)nc2Cl)CCN1C1CCN(C(=O)c2ccc(Cl)cc2CCNS(C)(=O)=O)CC1` [compound 347], the IC50 fell in the range of 0.025 to 0.1 µM.
To `CC[C@H]1CN(c2nc(N)c(C(=O)NCCO)nc2Cl)CCN1C1CCN(C(=O)c2ccc(F)c(F)c2N)CC1` [compound 348] belongs 0.025 to 0.1 µM; to `CC[C@H]1CN(c2nc(N)c(C(N)=O)nc2Cl)CCN1C1CCN(C(=O)c2ccc(Cl)cc2)CC1` [compound 349], 0.025 to 0.1 µM.
